# Laboratory results as given in US10004747B2, “Combination therapy” (Boehringer Ingelheim International GmbH, priority 2010, dated 2018).
# “Also recorded” adds a separate entry of the source. Marks after values point to notes of the source that are not given here.
# What was measured:
# [1] = Linagliptin alone or with low-dose exenatide for 28 days: plasma parameters and body composition in DIO rats
# [2] = Pharmacokinetics of BI 1356 after multiple oral doses once daily for 12 days in patients with type 2 diabetes; details: for RA, AUC (accumulation ratio) / RA, Cmax (accumulation ratio): 12 days, type 2 diabetes patients, gMean
# [3] = Day 29, DIO rats, vehicle pump + Linagliptin 3 mg/kg PO, mean ± SEM
compound,measurement,setting,value
CC#CCn1c(N2CCC[C@@H](N)C2)nc2c1c(=O)n(Cc1nc(C)c3ccccc3n1)c(=O)n2C [BI 1356],body weight from day 11 after exenatide treatment,"BI 1356 3 mg/kg po from Day 11 after exenatide 30 μg/kg/day Day 1-10, DIO rats, vs vehicle control",stabilize their body weight at the new weight level
same,less fat put on than vehicle-treated counterparts during exenatide withdrawal,"linagliptin 3 mg/kg po after exenatide withdrawal, DIO rats, p=0.07",10.6%
same,body fat weight regain after GLP-1R agonist cessation,"replacement of exenatide 30 μg/kg/day (Day 1-10) with linagliptin 3 mg/kg po from Day 11, DIO rats",prevents body fat weight regain
same,Carcass Fat,[1]; [3],151.1 ± 7.3 g
same,Carcass Protein,[1]; [3],63.8 ± 4.0 g
same,Carcass Water,[1]; [3],212.6 ± 3.4 g
same,GLP-1 (pM),[1]; [3],5.72 ± 0.9^b pM
same,Glucose,[1]; [3],8.72 ± 0.22 mM
same,Insulin,[1]; [3],1.82 ± 0.36 ng/mL
same,Leptin,[1]; [3],23.9 ± 2.5 ng/mL
same,augmentation of the effect of a low dose of exenatide,"[1]; linagliptin 3 mg/kg po in combination with exenatide 3 μg/kg/day sc, 28 days, DIO rats",does not augment the effect of a low dose of exenatide
same,"effect on body weight, daily food intake, plasma glucose, insulin or carcass fat compared to vehicle-treated controls","[1]; rat, in vivo",no effect
same,"RA, AUC (accumulation ratio)",[2]; 1 mg once daily oral,2.03
same,"RA, Cmax (accumulation ratio)",[2]; 1 mg once daily oral,1.44
same,"RA, AUC (accumulation ratio)",[2]; 2.5 mg once daily oral,1.37
same,"RA, Cmax (accumulation ratio)",[2]; 2.5 mg once daily oral,1.25
same,"RA, AUC (accumulation ratio)",[2]; 5 mg once daily oral,1.33
same,"RA, Cmax (accumulation ratio)",[2]; 5 mg once daily oral,1.33
same,"RA, AUC (accumulation ratio)",[2]; 10 mg once daily oral,1.18
same,"RA, Cmax (accumulation ratio)",[2]; 10 mg once daily oral,1.40
same,excretion via the kidney,[2]; therapeutic oral dose levels,< 7 % of the administered oral dose
same,main route of excretion,[2]; therapeutic oral dose levels,mainly excreted via the liver; also recorded: primarily excreted unchanged via the bile
